Test results published in patent publication US12371453B2, “Polypeptide having antibacterial activity, composition for preventing or treating sepsis comprising same, and antibacterial composition” (priority 2019, dated 2025).
≈ marks a conversion by molar mass, not a printed value. Square brackets hold non-standard residues; d marks the D form. Peptide text beside a SMILES is read from it.

Tests used:
[1] = tested on: trypsin, protease K, and chymotrypsin; details: read out by antibacterial activity
[2] = tested on: Escherichia coli K1; assay: microbe, parasite or virus in culture; details: K1
Experimental: (§1) To compare the antibacterial activity between the four commercially available antibiotics (ampicillin, gentamicin, levofloxacin and imipenem) and the allD FP13-NH2 (AcOH) peptide, an antibacterial activity test was performed to measure the minimum inhibitory concentrations (MIC50 and MIC80) for gram-negative and gram-positive standard strains (Escherichia coli DH5α, Escherichia coli K1, Acinetobacter baumannii, Pseudomonas aeruginosa, Salmonella enteritidis, Salmonella typhimurium, and Klebsiella pneumoniae).
(§2) More specifically, 100 μL of a medium was dispensed into each well of a 96-well plate, and in the first column, an antibiotic and a peptide in 200 μL of the medium were dispensed. 1/2 serial dilution was performed from columns 1 to 11, and gram-negative and gram-positive bacteria which had been previously cultured were diluted (OD600 nm value in dilution: approximately 0.0025) and dispensed into each well. The plate was incubated in a 37° C. incubator for 4 hours, and measured at OD600 nm.

[3] = tested on: Salmonela enteritidis (ATCC 13076); assay: microbe, parasite or virus in culture; details: ATCC 13076
Experimental: as §1, §2

[4] = tested on: Pseudomanas aeruginosa PAO1 (ATCC 47085D-5); assay: microbe, parasite or virus in culture; details: PAO1
Experimental: as §1, §2

[5] = tested on: Salmonela typhimurium (ATCC 53648); assay: microbe, parasite or virus in culture; details: Salmonella typhimurium ATCC 53648
Experimental: as §1, §2

[6] = tested on: Acinetobacter baumannii (ATCC 19606); assay: microbe, parasite or virus in culture; details: ATCC 19606
Experimental: as §1, §2

[7] = tested on: Klebiella pneumoniae (ATCC 13883); assay: microbe, parasite or virus in culture; details: ATCC 13883
Experimental: as §1, §2

[8] = tested on: Escherichia coli DH5α (ATCC PTA-4750); assay: microbe, parasite or virus in culture; details: Escherichia coli DH5α, 4 hours
Experimental: as §1, §2

[9] = LTA binding by ITC analysis; details: cell wall component of gram-positive bacteria (S. aureus)
Source text: The binding affinity to lipoteichoic acid (LTA) and lipoprotein (LPP), which are cell wall components of gram-positive bacteria (S. aureus), was confirmed through ITC analysis using allD FP13-NH2.
The binding affinity was confirmed using the ITC analysis method, and the experimental method in Example 1 was applied mutatis mutandis.

[10] = LPS binding affinity by Isothermal Titration Calorimeter (ITC); set-up: species or system E. coli K1
Source text: FPT (ADK 44-54) is denoted by wild type (WT), and peptides in which a point mutation occurred at various sites in WT were manufactured (FP3, FP5, FP6, and FP9). To increase the interaction with LPS in a residue sequence of FP3, peptides were designed based on FP3- and LPS-binding models (FP12-NH2 and FP13-NH2), and peptides were designed by additionally introducing a non-natural amino acid and an amino acid isomer (allomeric D-type amino acid) (allD FP12-NH2, allD FP13-NH2, allD FP-13-9a, allD FP-13-9w, allD FP-13-9k, and allD FP13-NH2 (AcOH)). In addition, an N-terminus PEGylated peptide (PEG-alld FP13-NH2 (AcOH)) was additionally designed, synthesized, and provided by ANYGEN, Co. Ltd. The binding affinity between each of the provided peptides and lipopolysaccharide (LPS) was confirmed through measuring the binding affinity (Kd) using Isothermal Titration Calorimeter (ITC).
Specifically, a method of analyzing binding affinity (Kd) between a peptide and LPS is as follows.
Measurement was carried out using a Malvern MicroCal PEAQ-ITC cell instrument, and the following pretreatment was carried out to confirm interaction with LPS. The amount and morphology of a sample cell are 300 μL and coin-shaped, fixed-in-place, respectively; a syringe rotation rate was 1,200 rpm; and a temperature was 30° C., 35° C. or 25° C.
Before the experiment, LPS and the peptide were previously diluted with PBS, thereby preparing 2 mM LPS and 0.2 mM peptide. 300 μL of the peptide was added into cells in the ITC instrument, which had been washed, and 40 μL of LPS was put into a syringe. After measurement conditions for ITC (temperature, number of injections) were set, the syringe was inserted into the cell, and ITC measurement was started. When the measurement was completed, analysis is performed, and the Kd values of LPS and the peptide were calculated.

[11] = tested on: Carbapenem resistant (CR)-Acinetobactor baumannii; assay: organism not typed
Experimental: (§3) The antibacterial activity was evaluated according to an antibacterial activity test method for measuring the minimum inhibitory concentration 50 (MIC50; the minimal concentration that kills 50% of bacteria).
as §2, with “11” for “11,”, “five types of antibiotic-resistant” for “gram-negative and gram-positive”, “bacteria (ESBL-resistant E. coli, carbapenem-resistant A. baumannii, carbapenem-resistant Klebsiella pneumoniae, carbapenem-resistant Pseudomonas aeruginosa, colistin-resistant Acinetobactor baumannii),” for “bacteria”, “cultured,” for “cultured”

[12] = tested on: S. aureus
[13] = tested on: Colistin resistant AB (Acinetobactor baumannii)
Experimental: as §3
as §2, with “11” for “11,”, “five types of antibiotic-resistant” for “gram-negative and gram-positive”, “bacteria (ESBL-resistant E. coli, carbapenem-resistant A. baumannii, carbapenem-resistant Klebsiella pneumoniae, carbapenem-resistant Pseudomonas aeruginosa, colistin-resistant Acinetobactor baumannii),” for “bacteria”, “cultured,” for “cultured”

[14] = tested on: CR-Klebsiella pneumoniae; details: CR-
Experimental: as §3
as §2, with “11” for “11,”, “five types of antibiotic-resistant” for “gram-negative and gram-positive”, “bacteria (ESBL-resistant E. coli, carbapenem-resistant A. baumannii, carbapenem-resistant Klebsiella pneumoniae, carbapenem-resistant Pseudomonas aeruginosa, colistin-resistant Acinetobactor baumannii),” for “bacteria”, “cultured,” for “cultured”

[15] = tested on: ESBL (E. coli); details: ESBL
Experimental: as §3
as §2, with “11” for “11,”, “five types of antibiotic-resistant” for “gram-negative and gram-positive”, “bacteria (ESBL-resistant E. coli, carbapenem-resistant A. baumannii, carbapenem-resistant Klebsiella pneumoniae, carbapenem-resistant Pseudomonas aeruginosa, colistin-resistant Acinetobactor baumannii),” for “bacteria”, “cultured,” for “cultured”

## CC(C)C[C@@H](NC(=O)[C@H](N)CCCCN)C(=O)N[C@H](CCCNC(=N)N)C(=O)N[C@@H](C(=O)N[C@H](CCCCN)C(=O)N[C@H](CC(C)C)C(=O)N[C@H](CCCNC(=N)N)C(=O)N[C@H](CCCNC(=N)N)C(=O)N[C@H](Cc1ccc(O)cc1)C(=O)N[C@H](CC(C)C)C(=O)N[C@H](CCCNC(=N)N)C(N)=O)C(C)C [allD FP13-NH2] (H-[dK][dL][dR][dV][dK][dL][dR][dR][dY][dL][dR]-NH2; N-terminus assumed)
[1]
  resistance to the proteolytic enzyme: much improved resistance
[2]
  MIC (μg/ml) 50%: <2.0 µg/mL
  MIC (μg/ml) 80%: <4.0 µg/mL
[3]
  MIC (μg/ml) 50%: <1.0 µg/mL
  MIC (μg/ml) 80%: <2.0 µg/mL
[4]
  MIC (μg/ml) 50%: <0.5 µg/mL
  MIC (μg/ml) 80%: <1.0 µg/mL
[5]; 50% growth inhibition
  MIC (μg/ml) 50%: <2.0 µg/mL
[5]; 80% growth inhibition
  MIC (μg/ml) 80%: <4.0 µg/mL
[6]
  MIC (μg/ml) 50%: <4.0 µg/mL
  MIC (μg/ml) 80%: <8.0 µg/mL
[7]
  MIC (μg/ml) 50%: <0.5 µg/mL
  MIC (μg/ml) 80%: <1.0 µg/mL
[8]; 50% growth inhibition
  MIC (μg/ml) 50%: <1.0 µg/mL
[8]; 80% growth inhibition
  MIC (μg/ml) 80%: <2.0 µg/mL
[9]
  binding to LTA (ITC): binds
[10]; compared with FP1 (wild type, WT)
  LPS binding affinity (in words): strong LPS binding affinity
[10]; peptide binding to LPS, read-out: Kd (calculated by ITC)
  Kd: 4.78 µM
[11]
  MIC50, Carbapenem resistant (CR)-Acinetobactor baumannii: <4 µg/mL
[12]
  MIC50: 4 µM (≈ 6 µg/mL)
  MIC90: 8 µM (≈ 12 µg/mL)
[13]
  MIC50, Colistin resistant AB: <16 µg/mL
[14]
  MIC50, CR-Klebsiella pneumoniae: <8 µg/mL
[15]
  MIC50, ESBL (E. coli): <0.5 µg/mL
